According to patent US12187728B2 (Raze Therapeutics, Inc., priority 2015, dated 2025):

Biological target: T1, Human MTHFD2 (Homo sapiens, UniProt P13995)
T1 construct: residues 36-350 in Uniport ID P13995; His6 (N); made in house; host or cells: E. coli
T1 sequence (P13995 36-350): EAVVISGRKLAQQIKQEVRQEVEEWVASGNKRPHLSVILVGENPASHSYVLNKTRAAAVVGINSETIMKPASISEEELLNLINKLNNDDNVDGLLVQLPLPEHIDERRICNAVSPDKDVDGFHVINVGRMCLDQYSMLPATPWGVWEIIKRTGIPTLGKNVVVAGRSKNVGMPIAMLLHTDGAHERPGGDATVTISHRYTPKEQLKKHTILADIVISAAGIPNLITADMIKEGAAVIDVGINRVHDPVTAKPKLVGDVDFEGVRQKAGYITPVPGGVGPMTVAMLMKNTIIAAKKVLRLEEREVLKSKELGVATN
Assay: MTHFD2 Activity Assay (dehydrogenase activity, diaphorase/resazurin coupled fluorescence)
Format: biochemical
Conditions: inhibitory activity (IC50 and/or binding constant); 0.2 nM MTHFD2, 11 concentrations
Procedure, shortened: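 His6-tagged MTHFD2 (res. 36-350), E. coli-expressed, at 0.2 nM preincubated with compound 15 min in Hepes pH 8.0/MgCl2/KH2PO4 buffer; 70 μM CH2-THF, 1 mM NAD+ added with resazurin/diaphorase, 30 min, EDTA stop. Resorufin fluorescence (ex 525/em 598); IC50 from 11-point 4-parameter fit.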

| SMILES | IC50 [nM] |
| --- | --- |
| CNC(=O)CCc1cccc(Nc2nc3c(c(=O)n(Cc4cc5c(Cl)cccc5[nH]4)c(=O)n3C)n2C)n1 [Example 330, 3-(6-(1-((4-chloro-1H-indol-2-yl)methyl)-3,7-dimethyl-2,6-dioxo-2,3,6,7-tetrahydro-1H-purin-8-ylamino)pyridin-2-yl)-N-methylpropanamide] | 10 to 1000 |
| Cn1c(Nc2ccc(C(=O)O)cc2)nc2c1c(=O)n(Cc1cc3c(Cl)cccc3[nH]1)c(=O)n2C [Example 331, 4-[[1-[(4-chloro-1H-indol-2-yl)methyl]-3,7-dimethyl-2,6-dioxo-purin-8-yl]amino]benzoic acid] | 10 to 1000 |
| COc1cc(Nc2nc3c(c(=O)n(Cc4cc5c(Cl)cccc5[nH]4)c(=O)n3C)n2C)ccn1 [Example 333, 1-[(4-chloro-1H-indol-2-yl)methyl]-8-[(2-methoxy-4-pyridyl)amino]-3,7-dimethyl-purine-2,6-dione] | 10 to 1000 |
| Cn1c(Nc2ccnc(C(F)(F)F)c2)nc2c1c(=O)n(Cc1cc3c(Cl)cccc3[nH]1)c(=O)n2C [Example 334, 1-[(4-chloro-1H-indol-2-yl)methyl]-8-[(2-trifluoromethyl-4-pyridyl)amino]-3,7-dimethyl-purine-2,6-dione] | 1000 to 5000 |
| Cn1c(NS(C)(=O)=O)nc2c1c(=O)n(Cc1cc3c(Cl)cccc3[nH]1)c(=O)n2C [Example 336, N-[1-[(4-chloro-1H-indol-2-yl)methyl]-3,7-dimethyl-2,6-dioxo-purin-8-yl]methanesulfonamide] | 10 to 1000 |
| Cn1c(Nc2cccc(CC(=O)O)c2)nc2c1c(=O)n(Cc1cc3c(Cl)cccc3[nH]1)c(=O)n2C [Example 339, 2-(3-((1-((4-chloro-1H-indol-2-yl)methyl)-3,7-dimethyl-2,6-dioxo-2,3,6,7-tetrahydro-1H-purin-8-yl)amino)phenyl)acetic acid] | 10 to 1000 |
| Cc1c(Cn2c(=O)c3c(nc(Nc4ccncc4)n3C)n(C)c2=O)[nH]c2ccccc12 [Example 340, 3,7-dimethyl-1-((3-methyl-1H-indol-2-yl)methyl)-8-(pyridin-4-ylamino)-1H-purine-2,6(3H,7H)-dione] | 10 to 1000 |
| Cn1c(=O)n(Cc2ccc(Cl)c(Cl)c2)c(=O)c2c1nc(NC1CCCC(C(=O)O)C1)n2CCC(=O)O (centres unmarked) [Example 341, 3-(7-(2-carboxyethyl)-1-(3,4-dichlorobenzyl)-3-methyl-2,6-dioxo-2,3,6,7-tetrahydro-1H-purin-8-ylamino)cyclohexanecarboxylic acid] | 5000 to 10000 |
| Cc1cccc2[nH]c(Cn3c(=O)c4c(nc(NC5CCCC(C(=O)O)C5)n4C)n(C)c3=O)cc12 (centres unmarked) [Example 342, 3-(3,7-dimethyl-1-((4-methyl-1H-indol-2-yl)methyl)-2,6-dioxo-2,3,6,7-tetrahydro-1H-purin-8-ylamino)cyclohexanecarboxylic acid] | 10 to 1000 |
| Cn1c(Nc2cccnc2)nc2c1c(=O)n(Cc1cc3c(Cl)cccc3[nH]1)c(=O)n2C [Example 343, 1-((4-chloro-1H-indol-2-yl)methyl)-3,7-dimethyl-8-(pyridin-3-ylamino)-1H-purine-2,6(3H,7H)-dione] | 10 to 1000 |
| Cn1c(Nc2ccnc(C3CC(O)C3)c2)nc2c1c(=O)n(Cc1ccc(Cl)c(Cl)c1)c(=O)n2C (centres unmarked) [Example 344, 1-(3,4-diclorobenzyl)-8-(2-(3-hydroxylcyclobutyl)pyridine-4-ylamino)-3,7-dimethyl-1-H-purine-2,6(3H,7H)-dione] | 1000 to 5000 |
| Cn1c(Nc2ccc(CC(=O)O)cc2)nc2c1c(=O)n(Cc1cc3c(Cl)cccc3[nH]1)c(=O)n2C [Example 345, 2-[4-[[1-[(4-chloro-1H-indol-2-yl)methyl]-3,7-dimethyl-2,6-dioxo-purin-8-yl]amino]phenyl]acetic acid] | 10 to 1000 |
| Cn1c(Nc2cccc(C(=O)O)c2)nc2c1c(=O)n(Cc1cc3c(Cl)cccc3[nH]1)c(=O)n2C [Example 346, 3-[[1-[(4-chloro-1H-indol-2-yl)methyl]-3,7-dimethyl-2,6-dioxo-purin-8-yl]amino]benzoic acid] | 10 to 1000 |
| Cn1c(N[C@H]2CCC[C@H]2O)nc2c1c(=O)n(Cc1cc3c(Cl)cccc3[nH]1)c(=O)n2C [Example 347, 1-((4-chloro-1H-indol-2-yl)methyl)-8-((1S,2R)-2-hydroxycyclopentylamino)-3,7-dimethyl-1H-purine-2,6(3H,7H)-dione] | 10 to 1000 |
| Cn1c(Nc2ccncc2)nc2c1c(=O)n(Cc1cc3c(Br)cccc3[nH]1)c(=O)n2C [Example 348, 1-((4-bromo-1H-indol-2-yl)methyl)-3,7-dimethyl-8-(pyridin-4-ylamino)-1H-purine-2, 6(3H,7H)-dione] | 5000 to 10000 |
| Cn1c(Nc2ccncc2)nc2c1c(=O)n(Cc1ccc3ccccc3c1)c(=O)n2C [Example 349, 3,7-dimethyl-1-(naphthalen-2-ylmethyl)-8-(pyridin-4-ylamino)-1H-purine-2,6(3H,7H)-dione] | 10 to 1000 |

| SMILES | IC50 [nM] |
| --- | --- |
| Cn1c(Nc2ccncc2)nc2c1c(=O)n(Cc1cc3c(C#N)cccc3[nH]1)c(=O)n2C [Example 350, 2-((3,7-dimethyl-2,6-dioxo-8-(pyridin-4-ylamino)-2,3,6,7-tetrahydro-1H-purin-1-yl)methyl)-1H-indole-4-carbonitrile] | 5000 to 10000 |
| Cn1c(Nc2cccc(C3CCC(O)C3)n2)nc2c1c(=O)n(Cc1cc3c(Cl)cccc3[nH]1)c(=O)n2C (centres unmarked) [Example 351, 1-((4-chloro-1H-indol-2-yl)methyl)-8-(6-(3-hydroxycyclopentyl)pyridin-2-ylamino)-3,7-dimethyl-1H-purine 2,6(3H,7H)-dione] | 10 to 1000 |
| Cn1c(Nc2cccc(C3CC(O)C3)n2)nc2c1c(=O)n(Cc1ccc(Cl)c(Cl)c1)c(=O)n2C (centres unmarked) [Example 352, 1-(3,4-diclorobenzyl)-8-(6-(3-hydroxycyclobutyl)pyridine-2-ylamino)-3,7-dimethyl-1H-purine-2,6(3H,7H)-dione] | 1000 to 5000 |
| Cn1c(-n2c(N)nc3ccccc32)nc2c1c(=O)n(Cc1cc3c(Cl)cccc3[nH]1)c(=O)n2C [Example 353, 8-(2-amino-1H-benzo[d]imidazol-1-yl)-1-((4-chloro-1H-indol-2-yl)methyl)-3,7-dimethyl-1H-purine-2,6(3H,7H)-dione] | 1000 to 5000 |
| Cn1c(Nc2cnccn2)nc2c1c(=O)n(Cc1cc3c(Cl)cccc3[nH]1)c(=O)n2C [Example 354, 1-((4-chloro-1H-indol-2-yl)methyl)-3,7-dimethyl-8-(pyrazin-2-ylamino)-1H-purine-2,6(3H,7H)-dione] | 10 to 1000 |
| Cn1c(Nc2ccnc(CCC(=O)O)n2)nc2c1c(=O)n(Cc1cc3c(Cl)cccc3[nH]1)c(=O)n2C [Example 355, 3-(4-(1-((4-chloro-1H-indol-2-yl)methyl)-3,7-dimethyl-2,6-dioxo-2,3,6,7-tetrahydro-1H-purin-8-ylamino)pyrimidin-2-yl)propanoic acid] | 10 to 1000 |
| Cn1c(Nc2ncc[nH]2)nc2c1c(=O)n(Cc1cc3c(Cl)cccc3[nH]1)c(=O)n2C [Example 356, 1-[(4-chloro-1H-indol-2-yl)methyl]-8-(1H-imidazol-2-ylamino)-3,7-dimethyl-purine-2,6-dione] | 10 to 1000 |
| Cn1c(CN)nc2c1c(=O)n(Cc1cc3c(Cl)cccc3[nH]1)c(=O)n2C [Example 358, 8-(aminomethyl)-1-[(4-chloro-1H-indol-2-yl)methyl]-3,7-dimethyl-purine-2,6-dione] | 10 to 1000 |
| Cn1c(N[C@@H]2CCC[C@@H]2O)nc2c1c(=O)n(Cc1cc3c(Cl)cccc3[nH]1)c(=O)n2C [Example 359] | 10 to 1000 |
| Cn1c(NCC(N)=O)nc2c1c(=O)n(Cc1cc3c(Cl)cccc3[nH]1)c(=O)n2C [Example 360, 2-(1-((4-chloro-1H-indol-2-yl)methyl)-3,7-dimethyl-2,6-dioxo-2,3,6,7-tetrahydro-1H-purin-8-ylamino)acetamide] | 10 to 1000 |
| CCn1c(=O)n(Cc2cc3c(Cl)cccc3[nH]2)c(=O)c2c1nc(Nc1ccncc1)n2C [Example 361, 1-((4-chloro-1H-indol-2-yl)methyl)-3-ethyl-7-methyl-8-(pyridin-4-ylamino)-1H-purine-2,6(3H,7H)-dione] | 10 to 1000 |
| Cn1c(Nc2ccncn2)nc2c1c(=O)n(Cc1cc3c(Cl)cccc3[nH]1)c(=O)n2C [Example 362, 1-((4-chloro-1H-indol-2-yl)methyl)-3,7-dimethyl-8-(pyrimidin-4-ylamino)-3,7-dihydro-1H-purine-2,6-dione] | 10 to 1000 |
| Cc1cccc2cc(Cn3c(=O)c4c(nc(Nc5ccncc5)n4C)n(C)c3=O)[nH]c12 [Example 365, 3,7-dimethyl-1-[(7-methyl-1H-indol-2-yl)methyl]-8-(4-pyridylamino)purine-2,6-dione] | 10 to 1000 |
| Cn1c(Nc2ccncc2)nc2c1c(=O)n(Cc1cc3cccc(F)c3[nH]1)c(=O)n2C [Example 366, 1-[(7-fluoro-1H-indol-2-yl)methyl]-3,7-dimethyl-8-(4-pyridylamino)purine-2,6-dione] | 10 to 1000 |
| Cn1c(Nc2ccc(S(C)(=O)=O)cc2)nc2c1c(=O)n(Cc1cc3c(Cl)cccc3[nH]1)c(=O)n2C [Example 367, 1-[(4-chloro-1H-indol-2-yl)methyl]-3,7-dimethyl-8-(4-methylsulfonylanilino)purine-2,6-dione] | 10 to 1000 |
| Cn1c(=O)n(Cc2ccc(Cl)c(Cl)c2)c(=O)c2c1nc(NC1CCCC(C(=O)O)C1)n2CCN (centres unmarked) [Example 369, 3-(7-(2-aminoethyl)-1-(3,4-dichlorobenzyl)-3-methyl-2,6-dioxo-2,3,6,7-tetrahydro-1H-purin-8-ylamino)cyclohexanecarboxylic acid] | 10 to 1000 |
